The structures appear in SMILES notation.

In data set [1] the target is T1, human 11β-HSD1 (Homo sapiens, UniProt P28845).
T1 construct: cDNA coding for a full-length of human 11β-HSD1 in a mammal cell expression vector pCIneo; made in house; host or cells: HEK293 cells (transient transfection with pCIneo plasmid); microsome fraction used as enzyme source
Nature of the data set: 11β-HSD1 enzyme inhibition experiment. It counts as biochemical. The note with it: test compound at 39 nM; microsome fraction of HEK293 cells expressing human 11β-HSD1; cortisone 160 nM, room temperature, 3 h; read-out: inhibiting effects on cortisol production dependent on the 11β-HSD1 expressing cells. How it is done:
A plasmid obtained by incorporating cDNA coding for a full-length of human 11β-HSD1 in a mammal cell expression vector pCIneo (Promega Corporation) was introduced into HEK293 cells using Lipofectamine Plus Reagent (Invitrogen Corporation) according to the package insert. 48 h later, cells were collected and frozen at −80° C. Cells into which the pCIneo vector was introduced were prepared as a control. Cells were thawed and suspended in 20 mM HEPES, 1 mM ethylenediamine tetraacetic acid, 2 mM magnesium chloride (final concentrations), and a buffer containing a protease inhibitor cocktail (Roche), and 4.1 Mpa pressure was applied by N2 cavitation on the ice for 30 min to disrupt cells. The disrupted cell suspension was centrifuged at 1000×g at 4° C. for 10 min, and a supernatant thereof was recovered. The obtained supernatant was further ultracentrifuged at 105,000×g at 4° C. for 30 min, and the resulting precipitate was suspended in an assay buffer (50 mM tris buffer, 10% glycerol) as a microsome fraction and used as an enzyme source.
A reaction was performed on a 384-well plate (Greiner Bio One) using a reaction volume of 25 μL, and all the samples were diluted with an assay buffer (50 mM tris buffer, pH 7.4, 10% glycerol). 0.8 mM NADPH, 6 mM glucose 6-phosphate, 0.35 units/mL glucose 6-phosphate dehydrogenase (Sigma Chemical), and 3 mM magnesium chloride and a microsome fraction having a protein amount of 0.7 μg per well (final concentrations) were added to the plate, and a solution containing a test compound dissolved in dimethyl sulfoxide was added at a final concentration of 0.1% and preincubated at room temperature for 15 min. After completion of preincubation, cortisone at a final concentration of 160 nM was added to start a reaction, and the reaction was performed at room temperature for 3 h. 25 μL of 100 mM carbenoxolone (Sigma Chemical) was added to terminate the reaction, and the amount of produced cortisol was measured with Discovery (Hewlett-Packard Company) using a cortisol prototype kit (Cisbio International) according to the package insert.

T1 sequence (P28845 whole entry): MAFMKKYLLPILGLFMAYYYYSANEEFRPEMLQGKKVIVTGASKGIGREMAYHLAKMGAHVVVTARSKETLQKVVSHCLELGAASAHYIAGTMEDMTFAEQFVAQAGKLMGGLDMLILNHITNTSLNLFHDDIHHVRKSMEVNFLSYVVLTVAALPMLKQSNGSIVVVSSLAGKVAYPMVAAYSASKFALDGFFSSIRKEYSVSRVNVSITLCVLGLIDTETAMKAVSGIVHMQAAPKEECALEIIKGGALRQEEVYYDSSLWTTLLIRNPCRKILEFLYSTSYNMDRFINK

As for `CC1(C2CC2)Cc2nnc(-c3ccccc3Cl)n2CCS1` (stereo not shown) [Example 52, 3-(2-Chlorophenyl)-8-cyclopropyl-8-methyl-5,6,8,9-tetrahydro[1,2,4]triazolo[4,3-d][1,4]thiazepine], the inhibition at 0.039 µM in data set [1] is 89%. In general, melting point refers to the temperature, or range, at which the solid turns liquid. Consider `COc1cc(-c2ccc(F)c(Cl)c2)ccc1-c1nnc2n1CCSC(C)(CO)C2` (stereo not shown) [Example 32, [3-(3′-Chloro-4′-fluoro-3-methoxybiphenyl-4-yl)-8-methyl-5,6,8,9-tetrahydro[1,2,4]triazolo[4,3-d][1,4]thiazepin-8-yl]methanol], for which the melting point was 238 to 241 °C. The inhibition at 0.039 µM in data set [1] turned out to be 35.8%. Consider `Cc1c(-c2nnc3n2CCSC(C)(CO)C3)sc2ccc(Cl)cc12` (stereo not shown) [Example 8, [3-(5-Chloro-3-methyl-1-benzothiophen-2-yl)-8-methyl-5,6,8,9-tetrahydro[1,2,4]triazolo[4,3-d][1,4]thiazepin-8-yl]methanol], for which the inhibition at 0.039 µM in data set [1] amounted to 67.1%. As for `CC1(CO)Cc2nnc(-c3ccc(-c4ccc(F)cc4)cc3Cl)n2CCS1` (stereo not shown) [Example 1, [3-(3-Chloro-4′-fluorobiphenyl-4-yl)-8-methyl-5,6,8,9-tetrahydro[1,2,4]triazolo[4,3-d][1,4]thiazepin-8-yl]methanol], the melting point lay within 190 to 193 °C. Moreover, in data set [1], the inhibition at 0.039 µM came out at 71.8%. Take `CCOc1ccccc1-c1nnc2n1CCSC(C)(C)C2` [Example 49, 3-(2-Ethoxyphenyl)-8,8-dimethyl-5,6,8,9-tetrahydro[1,2,4]triazolo[4,3-d][1,4]thiazepine]: the melting point was in the range of 136 to 137 °C. On to `CC1(CO)Cc2nnc(-c3ccc(-c4ccc(F)cc4)cc3Cl)n2CCS1` (single isomer, unassigned; (-)) [Example 56, (−)-[3-(3-chloro-4′-fluorobiphenyl-4-yl)-8-methyl-5,6,8,9-tetrahydro[1,2,4]triazolo[4,3-d][1,4]thiazepin-8-yl]methanol], for which the melting point was 212 to 215 °C. Take `COc1cc(-c2ccc(F)c(F)c2)ccc1-c1nnc2n1CCSC(C)(CO)C2` (stereo not shown) [Example 31, [3-(3′,4′-Difluoro-3-methoxybiphenyl-4-yl)-8-methyl-5,6,8,9-tetrahydro[1,2,4]triazolo[4,3-d][1,4]thiazepin-8-yl]methanol]: the melting point fell in the range of 183 to 185 °C. Take `CC1(CO)Cc2nnc(-c3ccc(-c4cccc(F)c4)cc3Cl)n2CCS1` (stereo not shown) [Example 15, [3-(3-Chloro-3′-fluorobiphenyl-4-yl)-8-methyl-5,6,8,9-tetrahydro[1,2,4]triazolo[4,3-d][1,4]thiazepin-8-yl]methanol]: the melting point lay within 206 to 209 °C. As for `CC1(CO)Cc2nnc(-c3ccc(-c4ccc(Cl)cc4)cc3Cl)n2CCS1` (stereo not shown) [Example 19, [3-(3,4′-Dichlorobiphenyl-4-yl)-8-methyl-5,6,8,9-tetrahydro[1,2,4]triazolo[4,3-d][1,4]thiazepin-8-yl]methanol], the melting point was 219 to 223 °C. Consider `CC1(CO)Cc2nnc(-c3ccc(-c4cccc(C(F)(F)F)c4)cc3Cl)n2CCS1` (stereo not shown) [Example 17, [3-(3-Chloro-3′-trifluoromethylbiphenyl-4-yl)-8-methyl-5,6,8,9-tetrahydro[1,2,4]triazolo[4,3-d][1,4]thiazepin-8-yl]methanol], for which the melting point lay in the range of 195 to 198 °C. As for `CC1(CO)Cc2nnc(-c3ccc(-c4cc(Cl)ccc4F)cc3Cl)n2CCS1` (stereo not shown) [Example 29, [3-(3,5′-Dichloro-2′-fluorobiphenyl-4-yl)-8-methyl-5,6,8,9-tetrahydro[1,2,4]triazolo[4,3-d][1,4]thiazepin-8-yl]methanol], the melting point lay in the range of 186 to 189 °C.
